From ChEMBL document CHEMBL5038667, “Discovery of an Amino Acid-Modified Near-Infrared Aza-BODIPY Photosensitizer as an Immune Initiator for Potent Photodynamic Therapy in Melanoma” (J Med Chem, 2022)
In brackets after ≈: the same amount, converted by molar mass. Activity calls are given as the source filed them. No cut-off for these calls is given here.

Tests used:
[1] = Biodistribution in whole body of C57BL/6 mouse harboring B16-F10 cells at 2 mg/kg, iv measured after 12 hrs by flourescence imaging assay; type: ADME, organism-based; conditions: in vivo
[2] = Aqueous solubility in PBS; type: physicochemical; conditions: buffer
[3] = Lipophilicity, logP of compound; type: physicochemical; conditions: octanol/water
[4] = system: B16-F10; test: Dark toxicity against mouse B16-F10 cells assessed as reduction in cell viability incubated for 16 hrs by CCK-8 assay; type: cell-based; conditions: B16-F10, 16 h
[5] = Drug localisation in lysosome of mouse B16-F10 cells at 5 uM incubated for 16 hrs by Lyso Tracker Green based confocal laser scanning microscopy analysis; type: ADME, subcellular; conditions: b16-f10, 16 h
[6] = Drug localisation in lysosome of human A-375 cells at 5 uM incubated for 16 hrs by Lyso Tracker Green based confocal laser scanning microscopy analysis; type: ADME, subcellular; conditions: a-375, 16 h
[7] = Drug localisation in endoplasmic reticulum of mouse B16-F10 cells at 5 uM incubated for 16 hrs by ER Tracker Green based confocal laser scanning microscopy analysis; type: ADME, subcellular; conditions: b16-f10, 16 h
[8] = Drug localisation in endoplasmic reticulum of human A-375 cells at 5 uM incubated for 16 hrs by ER Tracker Green based confocal laser scanning microscopy analysis; type: ADME, subcellular; conditions: a-375, 16 h
[9] = system: B16-F10; test: Induction of ROS generation in mouse B16-F10 cells assessed as cells with high intracellular ROS levels at 10 nM incubated for 16 hrs followed by irradiated with 54 J/cm^2 of light dose by H2DCFDA fluorescent probe based flow cytometry method (reference value: 1.96 %); type: functional
[10] = system: A-375; test: Induction of ROS generation in human A-375 cells assessed as cells with high intracellular ROS levels at 10 nM incubated for 16 hrs followed by irradiated with 54 J/cm2 light dose by H2DCFDA fluorescent probe based flow cytometry method (reference value: 2.09 %); type: functional
[11] = system: A-375; test: Induction of ROS generation in human A-375 cells assessed as cells with high intracellular ROS levels at 100 nM incubated for 16 hrs followed by irradiated with 54 J/cm2 light dose by H2DCFDA fluorescent probe based flow cytometry method (reference value: 2.09 %); type: functional
[12] = system: B16-F10; test: Induction of apoptosis in mouse B16-F10 cells assessed as viable cells at 10 nM incubated for 16 hrs followed by irradiated with 54 J/cm^2 of light dose by Annexin V-FITC/PI based flow cytometric analysis (reference value: 87.45 %); type: functional; conditions: B16-F10, light or radiation study, read-out: Activity
[13] = system: B16-F10; test: Induction of apoptosis in mouse B16-F10 cells assessed as early apoptotic cells at 10 nM incubated for 16 hrs followed by irradiated with 54 J/cm^2 light dose by Annexin V-FITC/PI based flow cytometric analysis (reference value: 6.48 %); type: functional
[14] = system: B16-F10; test: Photodynamic therapy in mouse B16-F10 cells implanted in C57BL/6 mouse model assessed as increase in infiltration of CD8+ T cells by APC/FITC/PE staining based flow cytometric analysis (reference value: 3.68 %); type: functional
[15] = system: B16-F10; test: Induction of apoptosis in mouse B16-F10 cells assessed as late apoptotic cells at 50 nM incubated for 16 hrs followed by irradiated with 54 J/cm^2 light dose by Annexin V-FITC/PI based flow cytometric analysis (reference value: 2.32 %); type: functional
[16] = system: B16-F10; test: Induction of apoptosis in mouse B16-F10 cells assessed as late apoptotic cells at 10 nM incubated for 16 hrs followed by irradiated with 54 J/cm^2 light dose by Annexin V-FITC/PI based flow cytometric analysis (reference value: 2.32 %); type: functional
[17] = system: B16-F10; test: Induction of apoptosis in mouse B16-F10 cells assessed as late apoptotic cells at 250 nM incubated for 16 hrs followed by irradiated with 54 J/cm^2 light dose by Annexin V-FITC/PI based flow cytometric analysis (reference value: 2.32 %); type: functional
[18] = system: B16-F10; test: Induction of apoptosis in mouse B16-F10 cells assessed as necrotic cells at 10 nM incubated for 16 hrs followed by irradiated with 54 J/cm^2 light dose by Annexin V-FITC/PI based flow cytometric analysis (reference value: 3.75 %); type: functional
[19] = system: B16-F10; test: Induction of apoptosis in mouse B16-F10 cells assessed as necrotic cells at 50 nM incubated for 16 hrs followed by irradiated with 54 J/cm^2 light dose by Annexin V-FITC/PI based flow cytometric analysis (reference value: 3.75 %); type: functional
[20] = system: A-375; test: Induction of apoptosis in human A-375 cells assessed as total apoptotic cells at 50 nM incubated for 16 hrs followed by irradiated with 54 J/cm^2 light dose by Annexin V-FITC/PI based flow cytometric analysis (reference value: 4.79 %); type: functional
[21] = system: B16-F10; test: Antitumor immunity against mouse B16-F10 cells assessed as release of HMGB1 at 10 nM incubated for 16 hrs followed by irradiated with 54 J/cm^2 light dose and further incubated for 6 hrs by Alexa Fluor 488/Hoechst 33342 staining based confocal laser scanning microscopy; type: functional, cell-based
[22] = system: B16-F10; test: Antitumor immunity against mouse B16-F10 cells assessed as surface translocation of CRT at 250 nM incubated for 16 hrs followed by irradiated with 54 J/cm^2 light dose and further incubated for 6 hrs by Alexa Fluor 488/Hoechst 33342 staining based confocal laser scanning microscopy; type: functional, cell-based
[23] = system: B16-F10; test: Antitumor immunity against mouse B16-F10 cells assessed as release of HMGB1 at 250 nM incubated for 16 hrs followed by irradiated with 54 J/cm^2 light dose and further incubated for 6 hrs by Alexa Fluor 488/Hoechst 33342 staining based confocal laser scanning microscopy; type: functional, cell-based
[24] = Biodistribution in heart of C57BL/6 mouse harboring mouse B16-F10 cells at 2 mg/kg, iv measured after 12 hrs by flourescence imaging assay; type: ADME, organism-based; conditions: in vivo
[25] = Biodistribution in spleen of C57BL/6 mouse harboring mouse B16-F10 cells at 2 mg/kg, iv measured after 12 hrs by flourescence imaging assay; type: ADME, organism-based; conditions: in vivo
[26] = system: B16-F10; test: Biodistribution in tumor of C57BL/6 mouse harboring mouse B16-F10 cells at 2 mg/kg, iv measured after 12 hrs by flourescence imaging assay; type: ADME, organism-based; conditions: in vivo
[27] = Toxicity in C57BL/6 mouse harboring mouse B16-F10 cells assessed as change in body weight at 2 mg/kg, iv irradiated with 60 J/cm^2 laser light measured upto 14 days; type: organism-based; conditions: in vivo, 336 h, time <=14 day

SMILES: COc1ccc(C2=[N+]3C(=Nc4c(-c5ccccc5)c5c(n4[B-]3(F)F)-c3ccc(OCC(=O)N[C@@H](CC(=O)O)C(=O)O)cc3CC5)C(c3ccccc3)=C2I)cc1
- Drug uptake [1]: Active
- solubility [2]: 165 µM (≈ 144 µg/mL)
- logP [3]: -0.77
- IC50 [4]: > 250 µM
- Drug uptake [5]: Active
- Drug uptake [6]: Active
- Drug uptake [7]: Active
- Drug uptake [8]: Active
- Activity [9]: 2.67%
- Activity [10]: 2.48%
- Activity [11]: 53.15%
- viability at 0.01 µM [12]: 88.9%
- Activity [13]: 2.93%
- Activity [14]: 7.98%
- Activity [15]: 13.7%
- Activity [16]: 7.3%
- Activity [17]: 20.54%
- Activity [18]: 0.88%
- Activity [19]: 3.51%
- Activity [20]: 66.46%
- Activity [21]: inactive
- Activity [22]: inactive
- Activity [23]: inactive
- Drug uptake [24]: Active
- Drug uptake [25]: Active
- Drug uptake [26]: Active
- Activity [27]: Non-Toxic
